Data: ChEMBL document CHEMBL4699425, “Active learning effectively identifies a minimal set of maximally informative and asymptotically performant cytotoxic structure-activity patterns in NCI-60 cell lines” (2020)
Calls of active or inactive are those of the source. No cut-off for these calls is given here.

Tested on: SK-MEL-2
Test: Growth inhibition of human SK-MEL-2 cells
Type: functional

Q: `O=C1c2cccnc2-c2nc(-c3ccccn3)cc3c2c1nc1ccccc13` was tested. Which GI50 (read-out: GI50) did it give?
A: The GI50 was 0.874 µM.

Q: And the GI50 (read-out: pGI50 (converted))?
A: Its GI50 is 0.875 µM.

Q: `CC1C(c2ccccc2O)c2cc3c(cc2OC1N1CCCC1)OCO3` (stereo unspecified) was tested. Which “growth inhibition (GI)” value did it give?
A: The value was “inactive”.

Q: With `COc1cc(C2c3cc4c(cc3OC(N3CCCC3)C2C)OCO4)cc(OC)c1OC` (stereo unspecified) as the molecule, how does the “growth inhibition (GI)” value read?
A: The value was “Active”.

Q: For `Cc1ccc(-c2cc3c4c(nc5ccccc53)C(=O)c3cccnc3-c4n2)cc1`, which GI50 (read-out: GI50) is on record?
A: The GI50 was 15 µM.

Q: What about the GI50 (read-out: pGI50 (converted)) of the same molecule?
A: Its GI50 is 15 µM.
